Measurements as given in patent US20230085307A1, “PYRIDAZINONE COMPOUND AND HERBICIDE” (NISSAN CHEMICAL CORPORATION, priority 2019, published 2023).

Columns and labels:
Italian ryegrass [1] = assay: Test Example 5: herbicidal effect by foliage application, plastic box (Table 20, symbol K); type: in vivo, Italian ryegrass (Lolium multiflorum); details: foliage application, 320 g/ha, evaluated three weeks after application
In short: (§1)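 Foliar spray test: emulsion formulation diluted in water to a set application rate, sprayed onto 14-day-old plants raised in diluvial soil at 25° C to 30° C under glass. Both herbicidal effect and crop effect rated visually three weeks later.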

velvetleaf [2] = assay: Test Example 4: herbicidal effect by soil treatment (Table 19, symbol M); type: in vivo, velvetleaf (Abutilon theophrasti)
In short: (§2)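 Step 1: sow seeds in sterilized diluvial soil, cover ~1.5 cm. Step 2: spray diluted emulsion onto soil surface at predetermined rate. Step 3: greenhouse, 25–30° C, three weeks. Step 4: grade effect on each plant by earlier criteria.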

rice flat sedge = assay: Test Example 3: herbicidal effect by foliage application, Wagner pot (Table 18, symbol E); type: in vivo, rice flat sedge (Cyperus iria)
In short: (§3)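 Plants were sown in alluvial soil held under 0.1–0.5 cm standing water and grown 14 days in a greenhouse at 25–30 °C. An emulsifiable formulation, water-diluted to the set dose, was then sprayed onto the foliage, and effects were scored three weeks later using previously defined criteria.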

chickweed [3] = assay: Test Example 4: herbicidal effect by soil treatment (Table 19, symbol P); type: in vivo, common chickweed (Stellaria media)
In short: as §2

late watergrass = assay: Test Example 1: herbicidal activity, application before weed generation under submerged conditions (Table 16, symbol A); type: in vivo, late watergrass (Echinochloa oryzicola); details: 320 g/ha applied herbicide
In short: (§4)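 Submerged Wagner pots (alluvial soil, 4 cm water) sown with weed seeds and planted with 2.5-leaf rice seedlings; emulsifiable concentrate diluted in water applied to water surface on sowing day. Held in greenhouse at 25-30 °C; injury scored 0-5 by herbicidal rate after three weeks.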

wild oat [4] = assay: Test Example 5: herbicidal effect by foliage application, plastic box (Table 20, symbol I); type: in vivo, wild oat (Avena fatua); details: foliage application, 320 g/ha, evaluated three weeks after application
In short: as §1

southern crabgrass [5] = assay: Test Example 4: herbicidal effect by soil treatment (Table 19, symbol F); type: in vivo, southern crabgrass (Digitaria ciliaris)
In short: as §2

blackgrass [6] = assay: Test Example 5: herbicidal effect by foliage application, plastic box (Table 20, symbol J); type: in vivo, blackgrass (Alopecurus myosuroides); details: foliage application, 320 g/ha, evaluated three weeks after application
In short: as §1

barnyard grass [7] = assay: Test Example 3: herbicidal effect by foliage application, Wagner pot (Table 18, symbol H); type: in vivo, barnyard grass (Echinochloa crus-galli)
In short: as §3

green foxtail [8] = assay: Test Example 4: herbicidal effect by soil treatment (Table 19, symbol G); type: in vivo, green foxtail (Setaria viridis)
In short: as §2

barnyard grass [9] = assay: Test Example 5: herbicidal effect by foliage application, plastic box (Table 20, symbol H); type: in vivo, barnyard grass (Echinochloa crus-galli); details: foliage application, 320 g/ha, evaluated three weeks after application
In short: as §1

wild oat [10] = assay: Test Example 4: herbicidal effect by soil treatment (Table 19, symbol I); type: in vivo, wild oat (Avena fatua)
In short: as §2

blackgrass [11] = assay: Test Example 4: herbicidal effect by soil treatment (Table 19, symbol J); type: in vivo, blackgrass (Alopecurus myosuroides)
In short: as §2

lambsquarters [12] = assay: Test Example 4: herbicidal effect by soil treatment (Table 19, symbol O); type: in vivo, lambsquarters (Chenopodium album)
In short: as §2

barnyard grass [13] = assay: Test Example 4: herbicidal effect by soil treatment (Table 19, symbol H); type: in vivo, barnyard grass (Echinochloa crus-galli)
In short: as §2

redroot pigweed [14] = assay: Test Example 5: herbicidal effect by foliage application, plastic box (Table 20, symbol N); type: in vivo, redroot pigweed (Amaranthus retroflexus); details: foliage application, 320 g/ha, evaluated three weeks after application
In short: as §1

windgrass [15] = assay: Test Example 4: herbicidal effect by soil treatment (Table 19, symbol L); type: in vivo, windgrass (Apera spica-venti)
In short: as §2

persian speedwell [16] = assay: Test Example 5: herbicidal effect by foliage application, plastic box (Table 20, symbol R); type: in vivo, Persian speedwell (Veronica persica); details: foliage application, 320 g/ha, evaluated three weeks after application
In short: as §1

Italian ryegrass [17] = assay: Test Example 4: herbicidal effect by soil treatment (Table 19, symbol K); type: in vivo, Italian ryegrass (Lolium multiflorum)
In short: as §2

velvetleaf [18] = assay: Test Example 5: herbicidal effect by foliage application, plastic box (Table 20, symbol M); type: in vivo, velvetleaf (Abutilon theophrasti); details: foliage application, 320 g/ha, evaluated three weeks after application
In short: as §1

chickweed [19] = assay: Test Example 5: herbicidal effect by foliage application, plastic box (Table 20, symbol P); type: in vivo, common chickweed (Stellaria media); details: foliage application, 320 g/ha, evaluated three weeks after application
In short: as §1

oval-leafed pondweed = assay: Test Example 1: herbicidal activity, application before weed generation under submerged conditions (Table 16, symbol C); type: in vivo, oval-leafed pondweed (Monochoria vaginalis); details: 320 g/ha applied herbicide
In short: as §4

lambsquarters [20] = assay: Test Example 5: herbicidal effect by foliage application, plastic box (Table 20, symbol O); type: in vivo, lambsquarters (Chenopodium album); details: foliage application, 320 g/ha, evaluated three weeks after application
In short: as §1

windgrass [21] = assay: Test Example 5: herbicidal effect by foliage application, plastic box (Table 20, symbol L); type: in vivo, windgrass (Apera spica-venti); details: foliage application, 320 g/ha, evaluated three weeks after application
In short: as §1

Chinese sprangletop = assay: Test Example 3: herbicidal effect by foliage application, Wagner pot (Table 18, symbol D); type: in vivo, chinese sprangletop (Leptochloa chinensis)
In short: as §3

false cleavers = assay: Test Example 5: herbicidal effect by foliage application, plastic box (Table 20, symbol Q); type: in vivo, false cleavers (Galium spurium); details: foliage application, 320 g/ha, evaluated three weeks after application
In short: as §1

persian speedwell [22] = assay: Test Example 4: herbicidal effect by soil treatment (Table 19, symbol R); type: in vivo, Persian speedwell (Veronica persica)
In short: as §2

green foxtail [23] = assay: Test Example 5: herbicidal effect by foliage application, plastic box (Table 20, symbol G); type: in vivo, green foxtail (Setaria viridis); details: foliage application, 320 g/ha, evaluated three weeks after application
In short: as §1

southern crabgrass [24] = assay: Test Example 5: herbicidal effect by foliage application, plastic box (Table 20, symbol F); type: in vivo, southern crabgrass (Digitaria ciliaris); details: foliage application, 320 g/ha, evaluated three weeks after application
In short: as §1

redroot pigweed [25] = assay: Test Example 4: herbicidal effect by soil treatment (Table 19, symbol N); type: in vivo, redroot pigweed (Amaranthus retroflexus)
In short: as §2

Japanese bulrush = assay: Test Example 1: herbicidal activity, application before weed generation under submerged conditions (Table 16, symbol B); type: in vivo, Japanese bulrush (Schoenoplectus juncoides); details: 320 g/ha applied herbicide
In short: as §4

[26] = amount of applied herbicide 320 g/ha

| Compound | herbicidal effect on K: Italian ryegrass (Italian ryegrass [1]) | Herbicidal effect on A: late watergrass (grade 0-5) (late watergrass) | herbicidal effect on I: wild oat (wild oat [4]) | herbicidal effect on J: blackgrass (blackgrass [6]) | herbicidal effect on H: barnyard grass (barnyard grass [9]) | herbicidal effect on N: redroot pigweed (redroot pigweed [14]) | herbicidal effect on R: persian speedwell (persian speedwell [16]) | herbicidal effect on M: velvetleaf (velvetleaf [18]) | herbicidal effect on P: chickweed (chickweed [19]) | Herbicidal effect on C: oval-leafed pondweed (grade 0-5) (oval-leafed pondweed) | herbicidal effect on O: lambsquarters (lambsquarters [20]) | herbicidal effect on L: windgrass (windgrass [21]) | herbicidal effect on Q: false cleavers (false cleavers) | herbicidal effect on G: green foxtail (green foxtail [23]) | herbicidal effect on F: southern crabgrass (southern crabgrass [24]) | Herbicidal effect on B: Japanese bulrush (grade 0-5) (Japanese bulrush) | further results |
| --- | --- | --- | --- | --- | --- | --- | --- | --- | --- | --- | --- | --- | --- | --- | --- | --- | --- |
| COc1cc(F)ccc1-c1sc2ccc(F)cc2c1-c1c(O)c(C)nn(C)c1=O [2-083] | 4 (Herbicidal rate of 70% or more and less than 90%) | 2 (Herbicidal rate of 20% or more and less than 40%) | 5 (Herbicidal rate of 90% or more (almost completely withered)) | 5 (Herbicidal rate of 90% or more (almost completely withered)) | 5 (Herbicidal rate of 90% or more (almost completely withered)) | 5 (Herbicidal rate of 90% or more (almost completely withered)) | 5 (Herbicidal rate of 90% or more (almost completely withered)) | 5 (Herbicidal rate of 90% or more (almost completely withered)) | 5 (Herbicidal rate of 90% or more (almost completely withered)) | 3 (Herbicidal rate of 40% or more and less than 70%) | 5 (Herbicidal rate of 90% or more (almost completely withered)) | 5 (Herbicidal rate of 90% or more (almost completely withered)) | 5 (Herbicidal rate of 90% or more (almost completely withered)) | 5 (Herbicidal rate of 90% or more (almost completely withered)) | 4 (Herbicidal rate of 70% or more and less than 90%) | 1 (Herbicidal rate of 5% or more and less than 20%) | herbicidal effect rating, M: velvetleaf (velvetleaf [2]; 320 g/ha): 2 (Herbicidal rate of 20% or more and less than 40%); herbicidal effect on E (rice flat sedge), rating 0-5 (rice flat sedge; 320 g/ha): 5 (Herbicidal rate of 90% or more (almost completely withered)); herbicidal effect rating, P: chickweed (chickweed [3]; 320 g/ha): 4 (Herbicidal rate of 70% or more and less than 90%); herbicidal effect rating, F: southern crabgrass (southern crabgrass [5]; 320 g/ha): 4 (Herbicidal rate of 70% or more and less than 90%); herbicidal effect on H (barnyard grass), rating 0-5 (barnyard grass [7]; 320 g/ha): 5 (Herbicidal rate of 90% or more (almost completely withered)); herbicidal effect rating, G: green foxtail (green foxtail [8]; 320 g/ha): 2 (Herbicidal rate of 20% or more and less than 40%); herbicidal effect rating, I: wild oat (wild oat [10]; 320 g/ha): 3 (Herbicidal rate of 40% or more and less than 70%); herbicidal effect rating, J: blackgrass (blackgrass [11]; 320 g/ha): 5 (Herbicidal rate of 90% or more (almost completely withered)); herbicidal effect rating, O: lambsquarters (lambsquarters [12]; 320 g/ha): 5 (Herbicidal rate of 90% or more (almost completely withered)); herbicidal effect rating, H: barnyard grass (barnyard grass [13]; 320 g/ha): 1 (Herbicidal rate of 5% or more and less than 20%); herbicidal effect rating, L: windgrass (windgrass [15]; 320 g/ha): 4 (Herbicidal rate of 70% or more and less than 90%); herbicidal effect rating, K: Italian ryegrass (Italian ryegrass [17]; 320 g/ha): 0 (Herbicidal rate of 5% or less (almost no effect)); herbicidal effect on D (Chinese sprangletop), rating 0-5 (Chinese sprangletop; 320 g/ha): 4 (Herbicidal rate of 70% or more and less than 90%); herbicidal effect rating, R: persian speedwell (persian speedwell [22]; 320 g/ha): 4 (Herbicidal rate of 70% or more and less than 90%); herbicidal effect rating, N: redroot pigweed (redroot pigweed [25]; 320 g/ha): 5 (Herbicidal rate of 90% or more (almost completely withered)) |
| Cc1nn(C)c(=O)c(-c2c(-c3ccc4c(c3)OCO4)sc3ccc(Cl)cc23)c1O [2-125] | 0 (Herbicidal rate of 5% or less (almost no effect)) | 0 (Herbicidal rate of 5% or less (almost no effect)) | 0 (Herbicidal rate of 5% or less (almost no effect)) | 0 (Herbicidal rate of 5% or less (almost no effect)) | 2 (Herbicidal rate of 20% or more and less than 40%) | 3 (Herbicidal rate of 40% or more and less than 70%) | 5 (Herbicidal rate of 90% or more (almost completely withered)) | 4 (Herbicidal rate of 70% or more and less than 90%) | 5 (Herbicidal rate of 90% or more (almost completely withered)) | 0 (Herbicidal rate of 5% or less (almost no effect)) | 4 (Herbicidal rate of 70% or more and less than 90%) | 0 (Herbicidal rate of 5% or less (almost no effect)) | 3 (Herbicidal rate of 40% or more and less than 70%) | 0 (Herbicidal rate of 5% or less (almost no effect)) | 0 (Herbicidal rate of 5% or less (almost no effect)) | 2 (Herbicidal rate of 20% or more and less than 40%) | M: velvetleaf, herbicidal effect rating (velvetleaf [2]; [26]): 3 (Herbicidal rate of 40% or more and less than 70%); herbicidal effect on E: rice flat sedge (rice flat sedge; [26]): 5 (Herbicidal rate of 90% or more (almost completely withered)); P: chickweed, herbicidal effect rating (chickweed [3]; [26]): 5 (Herbicidal rate of 90% or more (almost completely withered)); F: southern crabgrass, herbicidal effect rating (southern crabgrass [5]; [26]): 0 (Herbicidal rate of 5% or less (almost no effect)); herbicidal effect on H: barnyard grass (barnyard grass [7]; [26]): 4 (Herbicidal rate of 70% or more and less than 90%); G: green foxtail, herbicidal effect rating (green foxtail [8]; [26]): 0 (Herbicidal rate of 5% or less (almost no effect)); I: wild oat, herbicidal effect rating (wild oat [10]; [26]): 0 (Herbicidal rate of 5% or less (almost no effect)); J: blackgrass, herbicidal effect rating (blackgrass [11]; [26]): 0 (Herbicidal rate of 5% or less (almost no effect)); O: lambsquarters, herbicidal effect rating (lambsquarters [12]; [26]): 4 (Herbicidal rate of 70% or more and less than 90%); H: barnyard grass, herbicidal effect rating (barnyard grass [13]; [26]): 0 (Herbicidal rate of 5% or less (almost no effect)); L: windgrass, herbicidal effect rating (windgrass [15]; [26]): 0 (Herbicidal rate of 5% or less (almost no effect)); K: Italian ryegrass, herbicidal effect rating (Italian ryegrass [17]; [26]): 0 (Herbicidal rate of 5% or less (almost no effect)); herbicidal effect on D: Chinese sprangletop (Chinese sprangletop; [26]): 3 (Herbicidal rate of 40% or more and less than 70%); R: persian speedwell, herbicidal effect rating (persian speedwell [22]; [26]): 5 (Herbicidal rate of 90% or more (almost completely withered)); N: redroot pigweed, herbicidal effect rating (redroot pigweed [25]; [26]): 5 (Herbicidal rate of 90% or more (almost completely withered)) |
